Converted amounts (≈) assume the structure as drawn. Read-outs that look alike come from different tables or passages of the source.
Legend:
Assay type in all cases: cell-based
[1] = tested on: S. aureus (UAMS-1625 strain); assay: MIC by broth microdilution against S. aureus; conditions: Staphylococcus aureus, read-out: MIC S. aureus
[2] = tested on: A. baumannii (HUMC1 strain); assay: MIC by broth microdilution against A. baumannii in RPMI + 10% FCS; conditions: Acinetobacter baumannii, read-out: MIC A. baumannii
[3] = tested on: M. abscessus subsp. abscessus ATCC 19977; assay: MIC against M. abscessus in Middlebrook 7H9 + ADC; conditions: Mycobacteroides abscessus
[4] = ATCC19977, ATCC 19977, 7H9 + ADC, read-out: MIC M. abscessus

Row | SMILES | MIC [1] | MIC ([2]; HUMC1 strain, RPMI + 10% FCS) | MIC [3, 4] | MIC [2] | MIC ([3]; ATCC19977, read-out: MIC M. abscessus)
1 | CO[C@H]1/C=C/O[C@@]2(C)Oc3c(C)c(O)c4c(c3C2=O)C2=NC3(CCN(CC(C)C)CC3)NC2=C(NC(=O)/C(C)=C\C=C\[C@H](C)[C@H](O)[C@@H](C)[C@@H](O)[C@@H](C)[C@H](OC(=O)CC(=O)N2CC(n3ccnn3)C2)[C@@H]1C)C4=O [Compound 64] | 0.06 µg/mL (≈ 0.0602 µM) | ≤ 0.002 µg/mL | 1 µg/mL |  | 
2 | CO[C@H]1/C=C/O[C@@]2(C)Oc3c(C)c(O)c4c(c3C2=O)C2=NC3(CCN(CC(C)C)CC3)NC2=C(NC(=O)/C(C)=C\C=C\[C@H](C)[C@H](O)[C@@H](C)[C@@H](O)[C@@H](C)[C@H](OC(=O)CC(=O)N2CCC3(CC2)C(=O)NCN3c2ccccc2)[C@@H]1C)C4=O [Compound 48] | 0.25 µg/mL (≈ 0.226 µM) | 0.03 µg/mL | 0.5 µg/mL |  | 
3 | CO[C@H]1/C=C/O[C@@]2(C)Oc3c(C)c(O)c4c(c3C2=O)C2=NC3(CCN(CC(C)C)CC3)NC2=C(NC(=O)/C(C)=C\C=C\[C@H](C)[C@H](O)[C@@H](C)[C@@H](O)[C@@H](C)[C@H](OC(=O)C(C)C(=O)N2CCc3[nH]c5ccccc5c3C2)[C@@H]1C)C4=O (stereo partly drawn) [Compound 43] | 0.5 µg/mL (≈ 0.472 µM) | 0.06 µg/mL | 0.5 µg/mL |  | 
4 | COCCCNC(=O)CC(=O)O[C@H]1[C@H](C)[C@H](O)[C@H](C)[C@@H](O)[C@@H](C)/C=C/C=C(/C)C(=O)NC2=C3NC4(CCN(CC(C)C)CC4)N=C3c3c(c(O)c(C)c4c3C(=O)[C@@](C)(O/C=C/[C@H](OC)[C@H]1C)O4)C2=O [Compound 34] | 0.016 µg/mL (≈ 0.0166 µM) | ≤ 0.002 µg/mL | 1 µg/mL |  | 
5 | COC(=O)CNC(=O)CC(=O)O[C@H]1[C@H](C)[C@H](O)[C@H](C)[C@@H](O)[C@@H](C)/C=C/C=C(/C)C(=O)NC2=C3NC4(CCN(CC(C)C)CC4)N=C3c3c(c(O)c(C)c4c3C(=O)[C@@](C)(O/C=C/[C@H](OC)[C@H]1C)O4)C2=O [Compound 17] | 0.03 µg/mL (≈ 0.0312 µM) | ≤ 0.002 µg/mL | 2 µg/mL |  | 
6 | CO[C@H]1/C=C/O[C@@]2(C)Oc3c(C)c(O)c4c(c3C2=O)C2=NC3(CCN(CC(C)C)CC3)NC2=C(NC(=O)/C(C)=C\C=C\[C@H](C)[C@H](O)[C@@H](C)[C@@H](O)[C@@H](C)[C@H](OC(=O)CC(=O)NCCN(C)C)[C@@H]1C)C4=O [Compound 30] | 0.03 µg/mL (≈ 0.0312 µM) | ≤ 0.002 µg/mL | 1 µg/mL |  | 
7 | CO[C@H]1/C=C/O[C@@]2(C)Oc3c(C)c(O)c4c(c3C2=O)C2=NC3(CCN(CC(C)C)CC3)NC2=C(NC(=O)/C(C)=C\C=C\[C@H](C)[C@H](O)[C@@H](C)[C@@H](O)[C@@H](C)[C@H](OC(=O)CC(=O)NCCCN(C)C)[C@@H]1C)C4=O [Compound 29] | 0.03 µg/mL (≈ 0.0308 µM) | ≤ 0.002 µg/mL | 1 µg/mL |  | 
8 | CO[C@H]1/C=C/O[C@@]2(C)Oc3c(C)c(O)c4c(c3C2=O)C2=NC3(CCN(CC(C)C)CC3)NC2=C(NC(=O)/C(C)=C\C=C\[C@H](C)[C@H](O)[C@@H](C)[C@@H](O)[C@@H](C)[C@H](OC(=O)CC(=O)N2CCC(N3CCn5ccnc5C3)CC2)[C@@H]1C)C4=O [Compound 62] | 0.06 µg/mL (≈ 0.0556 µM) | ≤ 0.002 µg/mL | 1 µg/mL |  | 
9 | CO[C@H]1/C=C/O[C@@]2(C)Oc3c(C)c(O)c4c(c3C2=O)C2=NC3(CCN(CC(C)C)CC3)NC2=C(NC(=O)/C(C)=C\C=C\[C@H](C)[C@H](O)[C@@H](C)[C@@H](O)[C@@H](C)[C@H](OC(=O)CC(=O)NCCN2CCN(C)CC2)[C@@H]1C)C4=O [Compound 20] | 0.03 µg/mL (≈ 0.0295 µM) | ≤ 0.002 µg/mL | 1 µg/mL |  | 
10 | CO[C@H]1/C=C/OC2(C)Oc3c(C)c(O)c4c(c3C2=O)C2=NC3(CCN(CC(C)C)CC3)NC2=C(NC(=O)/C(C)=C\C=C\[C@H](C)[C@H](O)[C@@H](C)[C@@H](O)[C@@H](C)[C@H](OC(=O)CC(=O)N2CCn3c2nc2ccccc23)[C@@H]1C)C4=O (stereo partly drawn) [Compound 89] | 0.125 µg/mL (≈ 0.121 µM) | 0.016 µg/mL | 0.5 µg/mL |  | 
11 | CO[C@H]1/C=C/O[C@@]2(C)Oc3c(C)c(O)c4c(c3C2=O)C2=NC3(CCN(CC(C)C)CC3)NC2=C(NC(=O)/C(C)=C\C=C\[C@H](C)[C@H](O)[C@@H](C)[C@@H](O)[C@@H](C)[C@H](OC(=O)CC(=O)N2CCN(CCN3CCCCC3)CC2)[C@@H]1C)C4=O [Compound 114] | 0.125 µg/mL (≈ 0.117 µM) | ≤ 0.002 µg/mL | 0.5 µg/mL |  | 
12 | CO[C@H]1/C=C/O[C@@]2(C)Oc3c(C)c(O)c4c(c3C2=O)C2=NC3(CCN(CC(C)C)CC3)NC2=C(NC(=O)/C(C)=C\C=C\[C@H](C)[C@H](O)[C@@H](C)[C@@H](O)[C@@H](C)[C@H](OC(=O)CC(=O)NC2CCN(C)CC2)[C@@H]1C)C4=O [Compound 6] | 0.03 µg/mL (≈ 0.0304 µM) | ≤ 0.002 µg/mL | 1 µg/mL |  | 
13 | CO[C@H]1/C=C/O[C@@]2(C)Oc3c(C)c(O)c4c(c3C2=O)C2=NC3(CCN(CC(C)C)CC3)NC2=C(NC(=O)/C(C)=C\C=C\[C@H](C)[C@H](O)[C@@H](C)[C@@H](O)[C@@H](C)[C@H](OC(=O)CC(=O)Nc2ccc(CN3CCCCC3)cc2)[C@@H]1C)C4=O [Compound 18] | 0.06 µg/mL (≈ 0.0564 µM) | ≤ 0.002 µg/mL | 1 µg/mL |  | 
14 | CO[C@H]1/C=C/O[C@@]2(C)Oc3c(C)c(O)c4c(c3C2=O)C2=NC3(CCN(CC(C)C)CC3)NC2=C(NC(=O)/C(C)=C\C=C\[C@H](C)[C@H](O)[C@@H](C)[C@@H](O)[C@@H](C)[C@H](OC(=O)CCCC(=O)OCC2CCCN(C)C2)[C@@H]1C)C4=O (stereo partly drawn) [Compound 74] | 0.06 µg/mL (≈ 0.0582 µM) | ≤ 0.002 µg/mL | 1 µg/mL |  | 
15 | CO[C@H]1/C=C/O[C@@]2(C)Oc3c(C)c(O)c4c(c3C2=O)C2=NC3(CCN(CC(C)C)CC3)NC2=C(NC(=O)/C(C)=C\C=C\[C@H](C)[C@H](O)[C@@H](C)[C@@H](O)[C@@H](C)[C@H](OC(=O)CC(=O)NCC2CCN(C)CC2)[C@@H]1C)C4=O [Compound 5] | 0.125 µg/mL (≈ 0.125 µM) | ≤ 0.002 µg/mL | 1 µg/mL |  | 
16 | CCOC(=O)CCNC(=O)CC(=O)O[C@H]1[C@H](C)[C@H](O)[C@H](C)[C@@H](O)[C@@H](C)/C=C/C=C(/C)C(=O)NC2=C3NC4(CCN(CC(C)C)CC4)N=C3c3c(c(O)c(C)c4c3C(=O)[C@@](C)(O/C=C/[C@H](OC)[C@H]1C)O4)C2=O [Compound 16] | 0.03 µg/mL (≈ 0.0303 µM) | 0.004 µg/mL | 2 µg/mL |  | 
17 | CO[C@H]1/C=C/O[C@@]2(C)Oc3c(C)c(O)c4c(c3C2=O)C2=NC3(CCN(CC(C)C)CC3)NC2=C(NC(=O)/C(C)=C\C=C\[C@H](C)[C@H](O)[C@@H](C)[C@@H](O)[C@@H](C)[C@H](OC(=O)CC(=O)OCCc2ccccc2)[C@@H]1C)C4=O [Compound 31] | 1 µg/mL (≈ 1 µM) | 0.125 µg/mL | 4 µg/mL |  | 
18 | CO[C@H]1/C=C/O[C@@]2(C)Oc3c(C)c(O)c4c(c3C2=O)C2=NC3(CCN(CC(C)C)CC3)NC2=C(NC(=O)/C(C)=C\C=C\[C@H](C)[C@H](O)[C@@H](C)[C@@H](O)[C@@H](C)[C@H](OC(=O)CC(=O)N2CCC(N3CCCCC3)CC2)[C@@H]1C)C4=O [Compound 58] | 0.03 µg/mL (≈ 0.0288 µM) | ≤ 0.002 µg/mL | 1 µg/mL |  | 
19 | CO[C@H]1/C=C/O[C@@]2(C)Oc3c(C)c(O)c4c(c3C2=O)C2=NC3(CCN(CC(C)C)CC3)NC2=C(NC(=O)/C(C)=C\C=C\[C@H](C)[C@H](O)[C@@H](C)[C@@H](O)[C@@H](C)[C@H](OC(=O)CC(=O)OC2CCN(C)CC2)[C@@H]1C)C4=O [Compound 45] | 0.06 µg/mL (≈ 0.0607 µM) | 0.004 µg/mL | 0.5 µg/mL |  | 
20 | CO[C@H]1/C=C/O[C@@]2(C)Oc3c(C)c(O)c4c(c3C2=O)C2=NC3(CCN(CC(C)C)CC3)NC2=C(NC(=O)/C(C)=C\C=C\[C@H](C)[C@H](O)[C@@H](C)[C@@H](O)[C@@H](C)[C@H](OC(=O)C(C)C(=O)N2CCN(c3ccccc3S(N)(=O)=O)CC2)[C@@H]1C)C4=O (stereo partly drawn) [Compound 38] | 0.25 µg/mL (≈ 0.222 µM) | 0.008 µg/mL | 0.5 µg/mL |  | 
21 | CO[C@H]1/C=C/O[C@@]2(C)Oc3c(C)c(O)c4c(c3C2=O)C2=NC3(CCN(CC(C)C)CC3)NC2=C(NC(=O)/C(C)=C\C=C\[C@H](C)[C@H](O)[C@@H](C)[C@@H](O)[C@@H](C)[C@H](OC(=O)CC(=O)Nc2ccc(CN3CCN(C)CC3)cc2)[C@@H]1C)C4=O [Compound 36] | 0.016 µg/mL (≈ 0.0148 µM) | ≤ 0.002 µg/mL | 1 µg/mL |  | 
22 | CO[C@H]1/C=C/O[C@@]2(C)Oc3c(C)c(O)c4c(c3C2=O)C2=NC3(CCN(CC(C)C)CC3)NC2=C(NC(=O)/C(C)=C\C=C\[C@H](C)[C@H](O)[C@@H](C)[C@@H](O)[C@@H](C)[C@H](OC(=O)CC(=O)OCc2ccccc2)[C@@H]1C)C4=O [Compound 26] | 0.5 µg/mL (≈ 0.51 µM) | 0.03 µg/mL | 4 µg/mL |  | 
23 | CO[C@H]1/C=C/O[C@@]2(C)Oc3c(C)c(O)c4c(c3C2=O)C2=NC3(CCN(CC(C)C)CC3)NC2=C(NC(=O)/C(C)=C\C=C\[C@H](C)[C@H](O)[C@@H](C)[C@@H](O)[C@@H](C)[C@H](OC(=O)CC(=O)N2CCN(c3ccccc3S(N)(=O)=O)CC2)[C@@H]1C)C4=O [Compound 12] | 0.125 µg/mL (≈ 0.112 µM) | 0.03 µg/mL | 0.5 µg/mL |  | 
24 | CO[C@H]1/C=C/O[C@@]2(C)Oc3c(C)c(O)c4c(c3C2=O)C2=NC3(CCN(CC(C)C)CC3)NC2=C(NC(=O)/C(C)=C\C=C\[C@H](C)[C@H](O)[C@@H](C)[C@@H](O)[C@@H](C)[C@H](OC(=O)C(C)C(=O)N2CCC(Nc3ccccc3)CC2)[C@@H]1C)C4=O (stereo partly drawn) [Compound 41] | 0.5 µg/mL (≈ 0.47 µM) |  |  | 0.016 µg/mL | 0.5 µg/mL
25 | CO[C@H]1/C=C/O[C@@]2(C)Oc3c(C)c(O)c4c(c3C2=O)C2=NC3(CCN(CC(C)C)CC3)NC2=C(NC(=O)/C(C)=C\C=C\[C@H](C)[C@H](O)[C@@H](C)[C@@H](O)[C@@H](C)[C@H](OC(=O)CC(=O)N2CCCCC2)[C@@H]1C)C4=O [Compound 8] | 0.016 µg/mL (≈ 0.0167 µM) | 0.004 µg/mL | 0.5 µg/mL |  | 
26 | CO[C@H]1/C=C/O[C@@]2(C)Oc3c(C)c(O)c4c(c3C2=O)C2=NC3(CCN(CC(C)C)CC3)NC2=C(NC(=O)/C(C)=C\C=C\[C@H](C)[C@H](O)[C@@H](C)[C@@H](O)[C@@H](C)[C@H](OC(=O)CCCC(=O)OC2CCN(C)C2)[C@@H]1C)C4=O (stereo partly drawn) [Compound 77] | 0.06 µg/mL (≈ 0.0599 µM) | ≤ 0.002 µg/mL | 0.5 µg/mL |  | 

— patent US20250051356A1, “RIFABUTIN ANALOGS FOR THE TREATMENT OF DISEASE” (priority 2021, published 2025)
